Reference: BigSolDB 2.1

CC1(C)NC(=O)NC1=O
solubility (mole fraction)
Conditions | 283.15 K | 288.15 K | 293.15 K | 298.15 K | 303.15 K | 308.15 K | 313.15 K | 318.15 K | 323.15 K
in acetonitrile | 0.0123 | 0.0144 | 0.017 | 0.0196 | 0.0227 | 0.026 | 0.0294 | 0.0345 | 0.039
in ethanol | 0.0412 | 0.0465 | 0.0526 | 0.0592 | 0.0672 | 0.0757 | 0.0846 | 0.0961 | 0.108
in ethyl acetate | 0.0118 | 0.0133 | 0.0154 | 0.0175 | 0.0191 | 0.0213 | 0.0236 | 0.026 | 0.0289
in isobutanol | 0.0242 | 0.0284 | 0.0328 | 0.038 | 0.0439 | 0.0509 | 0.0577 | 0.0672 | 0.0757
in isopropanol | 0.0366 | 0.042 | 0.0481 | 0.0554 | 0.063 | 0.0714 | 0.0803 | 0.0914 | 0.102
in methanol | 0.0647 | 0.0719 | 0.0806 | 0.0896 | 0.0993 | 0.111 | 0.122 | 0.135 | 0.15
in n-butanol | 0.026 | 0.0296 | 0.0338 | 0.0389 | 0.0447 | 0.0509 | 0.0574 | 0.0661 | 0.0737
in n-pentanol | 0.0236 | 0.0267 | 0.0305 | 0.0348 | 0.0398 | 0.0453 | 0.0514 | 0.0583 | 0.0641
in n-propanol | 0.0326 | 0.0373 | 0.0424 | 0.0476 | 0.0543 | 0.0616 | 0.0687 | 0.0788 | 0.0881
in n-propyl acetate | 0.00923 | 0.0105 | 0.0118 | 0.0138 | 0.0155 | 0.0172 | 0.0193 | 0.0215 | 0.0234
in sec-butanol | 0.0384 | 0.0449 | 0.0505 | 0.058 | 0.0655 | 0.074 | 0.083 | 0.093 | 0.105
in water | 0.0163 | 0.0186 | 0.0213 | 0.0242 | 0.0279 | 0.0326 | 0.038 | 0.0458 | 0.0532
